In ChEMBL document CHEMBL4483862, “Open-source discovery of chemical leads for next-generation chemoprotective antimalarials” (2018):

Test system: Plasmodium berghei
Test: Luciferase/luciferin-expressing antifolate-resistant parasites were used to infect a culture of HepG2 cells that were pre-incubated with compounds. Infected hepatocytes emit light due to the luciferase reaction. Assay results are presented as the percent inhibition of light emission compared to control. […]
Format: functional
Settings: sporozoite; for IC90: read-out: LUCIFERASE INFECTION ASSAY - IC90
[1] = read-out: LUCIFERASE INFECTION ASSAY - IC50

With `CN1/C(=C\C=N\c2cc(Cl)c([N+](=O)[O-])cc2O)C(C)(C)c2ccccc21` the IC50 (HEPG2TOX_HILL_SLOPE 12.2, 11.0, HEPG2TOX_R_SQUARED 0.457, 0.953, PBLUC_HILL_SLOPE 3.42, PBLUC_R_SQUARED 0.319, read-out: LUCIFERASE INFECTION ASSAY - IC50) was 5.58 µM and the IC90 was > 10 µM.

`CC(C)(C)c1ccc(-c2n[nH]c(NC(=O)c3ccccc3Cl)c2Br)cc1` was tested, and the IC50 (PBLUC_HILL_SLOPE 11.9, PBLUC_R_SQUARED 0.175, read-out: LUCIFERASE INFECTION ASSAY - IC50) was 7.07 µM and the IC90 was > 7.63 µM.

For `COc1cccc2cc(C(=O)/C=C/c3c(C)nc4sc(C)cn34)oc12`, the IC50 [1] was > 10 µM and the IC90 was > 10 µM.

`O=c1c2ccsc2ncn1CCS(=O)(=O)N1CCN(C(c2ccc(F)cc2)c2ccc(F)cc2)CC1` was tested, and the IC50 (FFLUC_HILL_SLOPE 1.84, FFLUC_R_SQUARED 0.406, PBLUC_HILL_SLOPE 0.263, PBLUC_R_SQUARED 0.514, read-out: LUCIFERASE INFECTION ASSAY - IC50) was 1.49 µM and the IC90 was > 10 µM.

`CC(NC(=O)c1ccc(S(=O)(=O)C(F)F)cc1)C12CC3CC(CC(C3)C1)C2` (stereo not drawn) was tested, and the IC50 [1] was > 10 µM and the IC90 was > 10 µM.

For `CC(=O)c1cccc(-c2cnc3cnc(-c4ccccc4Cl)cn23)c1`, the IC50 (PBLUC_HILL_SLOPE 3.8, PBLUC_R_SQUARED 0.614, read-out: LUCIFERASE INFECTION ASSAY - IC50) was 6.8 µM and the IC90 was > 9.49 µM.

In the case of `Cc1cn2c(CNCCc3ccc(N4CCCCC4)cc3)c(C)nc2s1`, the IC50 (HEPG2TOX_HILL_SLOPE 1.99, HEPG2TOX_R_SQUARED 0.618, PBLUC_HILL_SLOPE 85.2, PBLUC_R_SQUARED 0.531, read-out: LUCIFERASE INFECTION ASSAY - IC50) is reported as 0.591 µM and the IC90 is reported as 0.606 µM.

For `CCCCNC(=O)c1c(NC(=O)c2cccc(Cl)c2Cl)nc2ccc(C)cn12`, the IC50 (HEPG2TOX_HILL_SLOPE 1.01, HEPG2TOX_R_SQUARED 0.774, PBLUC_HILL_SLOPE 4.09, PBLUC_R_SQUARED 0.588, read-out: LUCIFERASE INFECTION ASSAY - IC50) was 0.743 µM and the IC90 was 1.27 µM.

For `FC(F)(F)c1cc(N=C(C/C=N/c2cc(C(F)(F)F)cc(C(F)(F)F)c2)c2ccc(Cl)cc2)cc(C(F)(F)F)c1`, the IC50 (FFLUC_HILL_SLOPE 1.3, FFLUC_R_SQUARED 0.132, PBLUC_HILL_SLOPE 15.7, PBLUC_R_SQUARED 0.5, read-out: LUCIFERASE INFECTION ASSAY - IC50) was 0.585 µM and the IC90 was 0.673 µM.

For `CN(C(=O)COC(=O)c1nc(Cl)c(Cl)c(Cl)c1Cl)C1CCS(=O)(=O)C1` (stereo not drawn), the IC50 (HEPG2TOX_HILL_SLOPE 15.2, HEPG2TOX_R_SQUARED 0.451, read-out: LUCIFERASE INFECTION ASSAY - IC50) was > 10 µM and the IC90 was > 10 µM.

Work on `Cc1c(CN2CCN(c3ccccn3)CC2)noc1-c1ccc(F)cc1` yielded an IC50 (PBLUC_HILL_SLOPE 83.7, PBLUC_R_SQUARED 0.475, read-out: LUCIFERASE INFECTION ASSAY - IC50) of 3.36 µM and an IC90 of 3.45 µM.

`Cc1nn(-c2ccccc2)c(Sc2nc3ccccc3s2)c1/C=N/N1CCN(c2ccccn2)CC1` showed an IC50 (HEPG2TOX_HILL_SLOPE 19.8, HEPG2TOX_R_SQUARED 0.361, PBLUC_HILL_SLOPE 5.19, PBLUC_R_SQUARED 0.522, read-out: LUCIFERASE INFECTION ASSAY - IC50) of 4.72 µM and an IC90 of 7.21 µM.

For `O=C(NC1CC1)c1ccc(CN(C2CC2)S(=O)(=O)c2cccc3c2N=S=N3)cc1`, the IC50 [1] was > 10 µM and the IC90 was > 10 µM.

For `COc1ncccc1C(=O)Nc1ccccc1Cl`, the IC50 (HEPG2TOX_HILL_SLOPE 9.95, HEPG2TOX_R_SQUARED 0.955, PBLUC_HILL_SLOPE 2.98, PBLUC_R_SQUARED 0.38, read-out: LUCIFERASE INFECTION ASSAY - IC50) was 12.2 µM and the IC90 was > 12.6 µM.

`CC(C)CN1C(=O)N(CCCc2cccnc2)C(=O)C12CCN(C(C)CCc1ccccc1)CC2` (stereo not drawn) was tested, and the IC50 (PBLUC_HILL_SLOPE 2.19, PBLUC_R_SQUARED 0.623, read-out: LUCIFERASE INFECTION ASSAY - IC50) was 3.61 µM and the IC90 was > 6.92 µM.

With `CC(=O)N1CCC(C(=O)Nc2cc(C(F)(F)F)ccc2NC2CCCCC2)CC1` the IC50 [1] was > 10 µM and the IC90 was > 10 µM.

For `COc1cc(-c2ccc3ncc(-c4cccc(Cl)c4)n3n2)cc(OC)c1OC`, the IC50 (HEPG2TOX_HILL_SLOPE 9.46, HEPG2TOX_R_SQUARED 0.786, PBLUC_HILL_SLOPE 7.92, PBLUC_R_SQUARED 0.391, read-out: LUCIFERASE INFECTION ASSAY - IC50) was 4.31 µM and the IC90 was 5.69 µM.

For `CC(OC(=O)C1CC1)C(=O)Nc1ccnn1C(C)C` (stereo not drawn), the IC50 [1] was > 10 µM and the IC90 was > 10 µM.

For `COc1cc(-c2cnc3cnc(-c4ccc(NCCN5CCOCC5)nc4)cn23)ccc1O`, the IC50 (HEPG2TOX_HILL_SLOPE 1.25, HEPG2TOX_R_SQUARED 0.41, PBLUC_HILL_SLOPE 2.45, PBLUC_R_SQUARED 0.19, read-out: LUCIFERASE INFECTION ASSAY - IC50) was 6.15 µM and the IC90 was > 7.39 µM.

`N#CCCNS(=O)(=O)c1cccc(C(=O)Nc2ccc(Nc3ccccc3)cc2)c1` was tested, and the IC50 (HEPG2TOX_HILL_SLOPE 1.27, HEPG2TOX_R_SQUARED 0.641, PBLUC_HILL_SLOPE 2.13, PBLUC_R_SQUARED 0.388, read-out: LUCIFERASE INFECTION ASSAY - IC50) was 1.72 µM and the IC90 was 4.83 µM.

`Cc1cc(C)c(N2C(=O)C=CC2=O)c(C)c1` gave an IC50 (FFLUC_HILL_SLOPE 3.47, FFLUC_R_SQUARED 0.6, PBLUC_HILL_SLOPE 4.24, PBLUC_R_SQUARED 0.739, read-out: LUCIFERASE INFECTION ASSAY - IC50) of 7.79 µM and an IC90 of 13.1 µM.

`CN(C)c1cccc(-c2cnc3cnc(-c4cnn(C)c4)cn23)c1` was tested, and the IC50 (PBLUC_HILL_SLOPE 12.7, PBLUC_R_SQUARED 0.283, read-out: LUCIFERASE INFECTION ASSAY - IC50) was 8.89 µM and the IC90 was > 10.4 µM.

For `CN(CC(=O)Nc1ccc(F)c(F)c1F)c1cnccn1`, the IC50 [1] was > 10 µM and the IC90 was > 10 µM.

For `O=C(COc1nnc2ccccn12)Nc1cccc2ccccc12`, the IC50 [1] was > 10 µM and the IC90 was > 10 µM.

With `Cc1ccc2nc(-c3ccc(NC(=O)CN4C(=O)NC(C)(c5ccc(OC(F)F)cc5)C4=O)cc3)sc2c1` (stereo not drawn) the IC50 (PBLUC_HILL_SLOPE 1.6, PBLUC_R_SQUARED 0.077, read-out: LUCIFERASE INFECTION ASSAY - IC50) was > 10 µM and the IC90 was > 10 µM.

In the case of `CCCCNC(=O)c1c(NC(=O)c2ccc(Cl)cc2)nc2ccccn12`, the IC50 (FFLUC_HILL_SLOPE 14.7, FFLUC_R_SQUARED 0.115, HEPG2TOX_HILL_SLOPE 1.94, HEPG2TOX_R_SQUARED 0.747, PBLUC_HILL_SLOPE 14.3, PBLUC_R_SQUARED 0.4, read-out: LUCIFERASE INFECTION ASSAY - IC50) is reported as 2.58 µM and the IC90 is reported as 3 µM.

`COc1cccc(Cn2c3ccc(NC(=O)CC4CCCCC4)cc3c(=O)n2C)c1` was tested, and the IC50 [1] was > 8.1 µM and the IC90 was > 8.1 µM.

In the case of `Cc1cc(C)n(-c2ccc(NC(=O)c3ccc(CN4CCCCC4)cc3)cn2)n1`, the IC50 (HEPG2TOX_HILL_SLOPE 1.19, HEPG2TOX_R_SQUARED 0.854, PBLUC_HILL_SLOPE 17.4, PBLUC_R_SQUARED 0.154, read-out: LUCIFERASE INFECTION ASSAY - IC50) is reported as 9.79 µM and the IC90 is reported as > 10 µM.

With `CC(C)c1ccc(-n2c(SCc3ccccc3Cl)nnc2-c2ccc(C(C)(C)C)cc2)cc1` the IC50 (PBLUC_HILL_SLOPE 6.16, PBLUC_R_SQUARED 0.605, read-out: LUCIFERASE INFECTION ASSAY - IC50) was 3.2 µM and the IC90 was 4.57 µM.

In the case of `Cc1ccc(CSc2nc(C)c(Oc3ccc(F)cc3)c(=O)n2C)cc1`, the IC50 [1] is reported as > 8.91 µM and the IC90 is reported as > 8.91 µM.

For `N#Cc1ccc(NC(=O)NNc2ccc(Cl)cc2Cl)cc1`, the IC50 (PBLUC_HILL_SLOPE 16.6, PBLUC_R_SQUARED 0.338, read-out: LUCIFERASE INFECTION ASSAY - IC50) was 9.59 µM and the IC90 was > 10 µM.

Compound `CC(C)NC(=O)c1c(NC(=O)c2ccc(Cl)cc2)nc2ccccn12` has an IC50 (HEPG2TOX_HILL_SLOPE 2.11, HEPG2TOX_R_SQUARED 0.869, PBLUC_HILL_SLOPE 50.8, PBLUC_R_SQUARED 0.665, read-out: LUCIFERASE INFECTION ASSAY - IC50) of 1.02 µM and an IC90 of 1.07 µM.

`CC(=O)N(/N=C/c1ccc(Cl)cc1)C1=NN(C(C)=O)C(c2ccc(Cl)cc2)S1` (stereo not drawn) was tested, and the IC50 [1] was > 7.58 µM and the IC90 was > 7.58 µM.

For `COc1ccc(-c2csc3ncnc(NCCC(C)C)c23)cc1`, the IC50 [1] was > 10 µM and the IC90 was > 10 µM.
